Reference: patent US11203601B2, “Tricyclic compounds as glycogen synthase kinase 3 (GSK3) inhibitors and uses thereof” (The Broad Institute, Inc., priority 2017, dated 2021)
≈ marks a conversion by molar mass, not a printed value. Like-named read-outs stand apart in the source and are kept apart here.

How the values were obtained:
physchem = details: 23 °C, aqueous buffer, thermodynamic from solid
Experimental: (§6) Solubility of compound was tested in triplicate by diluting a 10 mM DMSO solution with PBS. Maximum concentration of compound in solution was 100 μM.
(§7) Solubility of compound was tested in triplicate by drying down a 10 mM DMSO solution and then attempting to reconstitute in 100% PBS. Maximum concentration of compound in solution was 500 μM.
(§8) Compound requirements (1% DMSO in PBS): 30 μL of a 10 mM DMSO solution. Compound requirements (PBS-only): 60 μL of a 10 mM DMSO solution. Equilibration time: 18 hours at room temperature.

[1] = Liver microsomal stability, human; format: in vitro ADME
Experimental: (§1) Stability of compound in liver microsomes was tested in duplicate by incubating compound at 1 μM for 60 minutes at 37° C. Compound level at 60 minutes was compared to level at 0 minutes, and percent remaining was calculated. Order by selecting Microsomal Stability in Prometheus, checking boxes for desired species.
(§2) Available species: human, mouse (CD-1), and rat (Sprague-Dawley). Compound requirements: 5 μL of a 10 mM DMSO solution. Incubation time: 60 minutes at 37° C. Test Concentration: 1 μM.
(§3) Microsomes with NADPH without compound-matrix interference. Microsomes plus compound without NADPH-non-enzymatic instability.

[2] = Plasma protein binding (RED), mouse; format: in vitro ADME, mouse (CD-1); details: CD-1, 5 hours at 37° C., read-out: Plasma Protein Binding (Mouse, % bound) (converted)
Plasma stability, human = format: in vitro ADME
Experimental: (§4) Stability of compound in plasma was tested in duplicate by incubating compound at 5 μM for 5 hours at 37° C. Compound level at 5 hours was compared to level at 0 hours, and percent remaining was calculated. Binding to plasma proteins was tested in duplicate by incubating compound in plasma at 5 μM for 5 hours at 37° C. in the Rapid Equilibrium Dialysis (RED) Device. Compound level in plasma compartment was compared to compound level in buffer compartment to calculate percent bound. Order by selecting Plasma Stability and Plasma Protein Binding in Prometheus, checking boxes for desired species.
(§5) Available species: human, mouse (CD-1), and rat (Sprague-Dawley). Compound requirements: 15 μL of a 10 mM DMSO solution. Incubation time: 5 hours at 37° C. Test Concentration: 5 μM.

Plasma stability, mouse = format: in vitro ADME, mouse (CD-1)
Experimental: as §4, §5

[3] = Liver microsomal stability, mouse; format: in vitro ADME, mouse (CD-1)
Experimental: as §1, §2, §3

[4] = Plasma protein binding (RED), human; format: in vitro ADME; details: 5 hours at 37° C., read-out: Plasma Protein Binding (Human, % bound) (converted)
Experimental: as §4, §5

GSK3α = GSK3α (Homo sapiens (Human), UniProt P49840); test: GSK3 alpha biochemical assay (TR-FRET); details: GSK3α TR-FRET BIOCHEMICAL (TR-FRET) GMean IC50, 4 μM ATP (Km), 100 min at room temperature
Experimental: (§9) 1 nM enzyme, 200 nM biotinylated peptide
(§10) 4 μM ATP (GSK3 alpha) or 2 μM ATP (GSK3 beta)
(§11) The reaction volume is 10 μL, and the final percent DMSO is 1%. The total volume of DMSO is therefore 100 nL. It is critical that the percentage of DMSO be controlled and consistent across the plate. […] The High control is with all assay components but no inhibitor, the low control is with all assay components but no enzyme.
(§12) Make 2× detection reagents in Invitrogen TR-FRET detection buffer for final 20 nM Strepavidin-d2, 1 nM Tb^2+-pSer641 antibody (using 20 μl as final volume). 2× detection=40 nM Strepavidin-d2, 2 nM Tb^2+-pSer641 antibody.
(§13) XLFit is used for results which are archived into a database. The data is normalized as a percentage of uninhibited control minus max inhibited controls.

GSK3β = GSK3β (Homo sapiens (Human), UniProt P49841); test: GSK3 beta biochemical assay (TR-FRET); details: GSK3β TR-FRET BIOCHEMICAL (TR-FRET) GMean IC50, 2 μM ATP (Km), 100 min at room temperature
Experimental: as §9, §10, §11, §12, §13

MDR1 = test: Additional MDCK permeability (MDR1-MDCK) assay (Example 6); format: in vitro ADME; details: dog
Text: The MDR1/MDCK assay is run at Absorption Systems. This assay is used to determine the blood-brain barrier (BBB) penetration potential of a test compound using MDR1-MDCK cell monolayers.
Assay System • Confluent monolayers of MDR1-MDCK cells, 7 to 11 days old. Assay Conditions • Receiver well with 1% BSA in modified Hanks buffer (HBSSg) • Apical and basolateral side at pH 7.4 • Dose two monolayers in each direction (N=2) • Dose apical side for (A to B) assessment • Dose basolateral side for (B to A) assessment • Sample both apical and basolateral sides at 120 minutes • Determine the concentrations of test compound using a generic LC-MS/MS method with a minimum 4 point calibration curve. Assay QC • The quality of the cell monolayer batch is verified using control compounds before monolayers are released for use • The quality of each monolayer used in the assay is verified by a TEER measurement and by calculating the Papp for a control compound.

GSK3 = details: cited from earlier work
Solubility in PBS = details: 23 °C, aqueous buffer, thermodynamic from solid
Experimental: as §6, §7, §8

[5] = tested on: oxidative stress-induced neurodegeneration; details: cited from earlier work
[6] = tested on: Δ7 SMA KO mouse model of SMA; details: transgenic Δ7 SMA KO mouse model; cited from earlier work
[7] = tested on: SMA patient-derived fibroblast cells; details: Western blot; cited from earlier work
[8] = mouse plasma, 5 μM, 5 hours at 37° C.
[9] = human plasma, 5 μM, 5 hours at 37° C.

Chain of GSK3β (P49841 whole entry): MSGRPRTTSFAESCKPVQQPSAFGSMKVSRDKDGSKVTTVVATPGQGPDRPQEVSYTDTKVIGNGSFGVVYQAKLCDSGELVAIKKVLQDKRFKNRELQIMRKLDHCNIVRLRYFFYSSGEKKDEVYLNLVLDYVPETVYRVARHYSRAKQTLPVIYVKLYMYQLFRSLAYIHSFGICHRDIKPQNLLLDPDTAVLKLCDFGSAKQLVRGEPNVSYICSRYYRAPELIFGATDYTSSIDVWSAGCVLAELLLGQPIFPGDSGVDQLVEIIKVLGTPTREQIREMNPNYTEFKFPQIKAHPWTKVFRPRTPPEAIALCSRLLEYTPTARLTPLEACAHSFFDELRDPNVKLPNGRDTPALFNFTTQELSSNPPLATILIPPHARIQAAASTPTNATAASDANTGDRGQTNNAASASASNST
Chain of GSK3α (P49840 whole entry): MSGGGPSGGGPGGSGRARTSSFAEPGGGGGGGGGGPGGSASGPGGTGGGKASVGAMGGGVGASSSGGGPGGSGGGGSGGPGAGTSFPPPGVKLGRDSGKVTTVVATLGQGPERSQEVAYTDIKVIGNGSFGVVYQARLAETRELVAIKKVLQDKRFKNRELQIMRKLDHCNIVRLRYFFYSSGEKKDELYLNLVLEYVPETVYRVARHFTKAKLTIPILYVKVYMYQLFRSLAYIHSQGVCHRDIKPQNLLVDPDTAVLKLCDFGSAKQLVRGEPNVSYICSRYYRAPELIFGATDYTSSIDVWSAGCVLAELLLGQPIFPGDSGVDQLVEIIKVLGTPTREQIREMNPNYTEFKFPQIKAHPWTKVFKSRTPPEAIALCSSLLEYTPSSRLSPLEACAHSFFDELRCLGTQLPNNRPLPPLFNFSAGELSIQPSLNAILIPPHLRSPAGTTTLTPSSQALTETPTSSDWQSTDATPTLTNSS

| Compound | fraction unbound at 5 h, 5 μM [2] | fraction unbound at 5 h, 5 μM [4] | Human Liver Microsomal Stability, % remaining ([1]; 1 μM, 60 minutes at 37° C.) [%] | Plasma Stability (Mouse, % remaining) (Plasma stability, mouse; [8]) [%] | Mouse Liver Microsomal Stability, % remaining ([3]; 1 μM, 60 minutes at 37° C.) [%] | Plasma Stability (Human, % remaining) (Plasma stability, human; [9]) [%] | solubility thermodynamic at 18 h (Solubility in PBS) [µM] | other results |
| --- | --- | --- | --- | --- | --- | --- | --- | --- |
| Cc1c[nH]c(-c2cnc(NCCNc3ccc(C#N)cn3)nc2-c2ccc(Cl)cc2Cl)n1 [drawing 180] | 0.043 | 0.039 |  |  |  |  |  | solubility thermodynamic at 18 h (physchem): 116 µM (≈ 54 µg/mL); Human Liver Microsomal Stability, % remaining [1]: 3.0%; Plasma Stability (Human, % remaining) (Plasma stability, human): 100%; Plasma Stability (Mouse, % remaining) (Plasma stability, mouse): 97.0%; Mouse Liver Microsomal Stability, % remaining [3]: 4.0% |
| CCC1(c2ccccc2)C2=C(CC(C)(C)CC2=O)Nc2ncsc21 (single isomer, unassigned) [Compound 1-E2, 9-Ethyl-6,6-dimethyl-9-phenyl-5,6,7,9-tetrahydrothiazolo[4,5-b]quinolin-8(4H)-one] |  |  |  |  |  |  |  | IC50 (GSK3α): 0.037 µM; IC50 (GSK3β): 0.19 µM; Papp A→B at 120 min, 5 μM (MDR1): 7.67 ×10⁻⁶ cm/s; Papp B→A at 120 min, 5 μM (MDR1): 24.4 ×10⁻⁶ cm/s; efflux ratio at 120 min, 5 μM (MDR1; read-out: MDCK PERMEABILITY (MDR1-MDCK) Mean P. Ratio(B-A/A-B)): 3.2 |
| [Li+] [Li^+, Lithium] |  |  |  |  |  |  |  | IC50 (GSK3): 2000 µM |
| CC[C@@]1(c2ccccc2)C2=C(CC(C)(C)CC2=O)Nc2n[nH]cc21 [drawing 179] | 0.212 |  | 95 | 95.3 | 93 |  |  | solubility thermodynamic at 18 h (physchem): 480 µM (≈ 154 µg/mL) |
| CC[C@@]1(c2cccc(F)c2)C2=C(CC(C)(C)CC2=O)Nc2ncsc21 [drawing 174] | 0.043 | 0.029 | 2.4 | 96.0 | 3.9 | 99.2 | 100 (≈ 35.6 µg/mL) |  |
| CC1(C)CC(=O)C2=C(C1)Nc1ncsc1[C@]2(C)c1ccccc1 [drawing 172] | 0.004 | 0.005 | 17.7 | 100 | 0.7 | 100 | 34 (≈ 11 µg/mL) |  |
| Cn1cc(C2=C(c3coc4ccccc34)C(=O)NC2=O)c2cc(Br)ccc21 [BIP-135] |  |  |  |  |  |  |  | neuroprotection [5]: neuroprotective; median survival of the mice [6]: prolong the median survival of the mice; SMN protein level [7]: elevate the SMN protein level |
| CC[C@@]1(c2cccc(OC)c2)C2=C(CC(C)(C)CC2=O)Nc2ncsc21 | 0.077 | 0.025 | 1.6 | 97.0 | 10.8 | 98.3 | 153 (≈ 56.4 µg/mL) |  |
